Assay results published in publication PMC8416565 (Oncotarget, 2021).

Molecular target: T1, MAP2K7 (Homo sapiens, UniProt O14733)
T1 construct: purified human MAP2K7 (Origene)
T1 sequence (O14733 2-419): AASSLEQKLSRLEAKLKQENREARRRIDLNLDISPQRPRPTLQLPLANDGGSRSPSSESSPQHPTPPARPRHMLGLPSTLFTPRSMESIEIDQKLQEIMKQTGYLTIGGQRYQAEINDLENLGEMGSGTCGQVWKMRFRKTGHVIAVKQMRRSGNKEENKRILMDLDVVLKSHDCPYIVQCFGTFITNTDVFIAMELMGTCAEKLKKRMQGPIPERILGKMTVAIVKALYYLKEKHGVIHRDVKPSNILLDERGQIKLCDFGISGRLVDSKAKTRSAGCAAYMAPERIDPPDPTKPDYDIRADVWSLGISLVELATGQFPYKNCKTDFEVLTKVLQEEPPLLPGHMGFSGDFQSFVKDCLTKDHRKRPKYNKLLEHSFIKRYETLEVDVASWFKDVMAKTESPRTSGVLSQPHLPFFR
Assay: in vitro kinase assay (Kinase-Glo Plus / ADP-Glo), dead JNK2 substrate, 30-min preincubation
Type: biochemical

COc1cc(O)c2c(c1)/C=C/C[C@H](O)[C@H](O)C(=O)/C=C\C[C@H](C)OC2=O [5Z7O, 5Z-7-oxozeaenol]
IC50: 1200 nM
